Experimental data as given in paper PMC10914316 (Biochemistry, 2023).
Read-outs that look alike come from different tables or passages of the source.

Key:
ArnA_DH [1] = biological target: T1, ArnA_DH (Escherichia coli, UniProt P77398); conditions: for Tm (melting temperature of ArnA_DH with ligand): no ligand Tm = 318.4 ± 0.03 K
ArnA_DH_N492A [2] = biological target: T2, ArnA_DH_N492A (Escherichia coli, UniProt P77398, N492A); assay: Thermal stability shift assay for ligand binding to N492A mutant
T2 sequence (P77398 314-660 N492A): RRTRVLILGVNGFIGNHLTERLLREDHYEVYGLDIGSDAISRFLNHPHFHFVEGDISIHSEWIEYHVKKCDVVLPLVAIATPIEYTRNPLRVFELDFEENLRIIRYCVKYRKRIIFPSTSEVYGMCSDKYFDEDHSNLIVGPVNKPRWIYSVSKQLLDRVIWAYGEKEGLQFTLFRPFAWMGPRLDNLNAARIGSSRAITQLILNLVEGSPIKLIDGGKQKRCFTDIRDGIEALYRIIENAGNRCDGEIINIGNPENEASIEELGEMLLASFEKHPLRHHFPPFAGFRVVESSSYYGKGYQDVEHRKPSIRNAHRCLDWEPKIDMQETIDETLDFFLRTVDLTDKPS

ArnA_DH_N492A [3] = biological target: T2, ArnA_DH_N492A; assay: NADH binding; type: biochemical; conditions: concentrations as high as 10 mM
ArnA_DH [4] = biological target: T1, ArnA_DH; assay: biochemical

| SMILES | ligand binding by thermal stability shift assay (ArnA_DH [1]; 1 mM and 10 mM ligand) | Tm (melting temperature of ArnA_DH with ligand) (ArnA_DH [1]; 1 mM ligand) | Tm (melting temperature of ArnA_DH with ligand) (ArnA_DH [1]; 10 mM ligand) | Kd (ArnA_DH_N492A [2]) | UDP-GlcA-induced conformational change of ArnA_DH_N492A (intrinsic NADH fluorescence) (ArnA_DH_N492A [3]) | Kd (ArnA_DH [4]) |
| --- | --- | --- | --- | --- | --- | --- |
| O=C(O)[C@H]1O[C@H](OP(=O)(O)O)[C@H](O)[C@@H](O)[C@@H]1O [GlcA-1P, glucuronic acid-1-phosphate] | undetectable | 318.9 ± 0.02 K | 318.4 ± 0.03 K |  |  |  |
| O=C(O)[C@H]1O[C@H](OP(=O)(O)OP(=O)(O)OC[C@H]2O[C@@H](n3ccc(=O)[nH]c3=O)[C@H](O)[C@@H]2O)[C@H](O)[C@@H](O)[C@@H]1O [UDP-GlcA, UDP-glucuronic acid] |  |  |  | 36 ± 7 µM | little change in the intrinsic NADH fluorescence | 22 ± 5 µM |
| O=c1ccn([C@@H]2O[C@H](COP(=O)(O)OP(=O)(O)O[C@H]3OC[C@@H](O)[C@H](O)[C@H]3O)[C@@H](O)[C@H]2O)c(=O)[nH]1 [UDP-xylose] |  | 320.0 ± 0.03 K |  |  |  | 633 ± 116 µM |
| O=c1ccn([C@@H]2O[C@H](COP(=O)(O)O)[C@@H](O)[C@H]2O)c(=O)[nH]1 [UMP, uridine monophosphate] |  | 320.6 ± 0.02 K |  |  |  | 594 ± 135 µM |
